Source: ChEMBL document CHEMBL5260833, “An overview of quinazolines: Pharmacological significance and recent developments” (Eur J Med Chem, 2018)

Key:
Rattus norvegicus [1] = test: Antiinflammatory activity in rat at assessed as reduction in paw edema relative to control; type: functional
Mus musculus [2] = test: Analgesic activity in acetic acid peritonitis induced mouse assessed as reduction in writhing at 10 mg/kg, po measured after 1 hrs by writhing test relative to control; type: functional
Mus musculus [3] = test: Analgesic activity in phenylbenzoquinone induced mouse assessed as reduction in writhing at 10 mg/kg, po measured after 1 hrs by writhing test relative to control; type: functional
Mus musculus [4] = species: Mus musculus; test: Sedative hypnotic activity in mouse; type: functional; design: concentration or dose not given beside the values
[5] = Antiviral activity against Gomphrena mosaic virus relative to control; type: functional, Gomphrena mosiac virus; design: concentration or dose not given beside the values
Canis familiaris = test: Antiplatelet activity in iv dosed dog assessed as platelet aggregation; type: functional, organism-based; details: Canis lupus familiaris
[6] = molecular target: Histamine H2 receptor (Homo sapiens) (UniProt P25021); test: Inhibition of histamine h2 (unknown origin)
[7] = test system: Human immunodeficiency virus 1; test: Antiviral activity against HIV-1 infected in human MT4 cells assessed as protection against virus-induced cytotoxicity relative to control; type: functional; design: concentration or dose not given beside the values
[8] = test system: Human immunodeficiency virus 2; test: Antiviral activity against HIV-2 infected in human MT4 cells assessed as protection against virus-induced cytotoxicity relative to control; type: functional; design: concentration or dose not given beside the values
WIL2 = test: Anticancer activity against human WIL2 cell assessed as cell growth inhibition measured after 120 hrs; type: functional, cell-based; details: WIL2, 120 h
CCRF-CEM = test: Anticancer activity against human CCRF-CEM cell assessed as cell growth inhibition measured after 120 hrs; type: functional, cell-based
Oryctolagus cuniculus = test: Antihypertensive activity in po dosed rabbit assessed as decrease in 30mmhg of systolic blood pressure measured after 4 to 6 hrs; type: functional; details: time 4-6 hrs
SR = test: Anticancer activity against human SR cell assessed as cell growth inhibition measured after 24 hrs by SRB assay; type: functional
UO-31 = test: Anticancer activity against human UO-31 cell assessed as cell growth inhibition measured after 24 hrs by SRB assay; type: functional
RXF 393 = test: Anticancer activity against human RXF 393 cell assessed as cell growth inhibition measured after 24 hrs by SRB assay; type: functional
[9] = Anticancer activity against human CNS cell assessed as cell growth inhibition measured after 24 hrs by SRB assay; type: functional
K562 = test: Anticancer activity against human K562 cell assessed as cell growth inhibition measured after 24 hrs by SRB assay; type: functional
A549 = test: Anticancer activity against human A549 cell assessed as cell growth inhibition measured after 24 hrs by SRB assay; type: functional
MOLT-4 = test: Anticancer activity against human MOLT-4 cell assessed as cell growth inhibition measured after 24 hrs by SRB assay; type: functional
MDA-MB-231 = test: Anticancer activity against human MDA-MB-231 cells assessed as cell growth inhibition incubated for 24 hrs by MTT assay; type: functional, cell-based; details: MDA-MB-231, 24 h
HeLa = test: Anticancer activity against human HeLa cells assessed as cell growth inhibition incubated for 24 hrs by MTT assay; type: functional, cell-based
Rattus norvegicus [10] = test: Antiinflammatory activity in rat at assessed as reduction in paw edema at 200 mg/kg relative to control; type: functional
Mus musculus [11] = test: Anticonvulsant activity in ip dosed mouse assessed as reduction in tonus phase; type: functional
Mus musculus [12] = test: Anticonvulsant activity in ip dosed mouse assessed as reduction in clonus phase; type: functional
[13] = Inhibition of HCV RNA IRES IIa by FRET assay; design: species or system Hepacivirus hominis
Rattus norvegicus [14] = test: Antiinflammatory activity in carrageenan induced rat at assessed as reduction in paw edema 50 mg/kg, ip measured after […] relative to control; type: functional; design: scale not given: the % may be the effect or the level left
Mus musculus [15] = test: Sedative activity in mouse assessed as sleeping time at 30 mg/kg, ip; type: functional
Mus musculus [16] = test: Sedative activity in mouse assessed as sleeping time at 100 mg/kg, ip; type: functional
Mus musculus [17] = test: Anticonvulsant activity in mouse at 100 mg/kg, po measured after 30 mins relative to control; type: functional; details: 0.5 h

Histamine H2 receptor (Homo sapiens), sequence (P25021 whole entry): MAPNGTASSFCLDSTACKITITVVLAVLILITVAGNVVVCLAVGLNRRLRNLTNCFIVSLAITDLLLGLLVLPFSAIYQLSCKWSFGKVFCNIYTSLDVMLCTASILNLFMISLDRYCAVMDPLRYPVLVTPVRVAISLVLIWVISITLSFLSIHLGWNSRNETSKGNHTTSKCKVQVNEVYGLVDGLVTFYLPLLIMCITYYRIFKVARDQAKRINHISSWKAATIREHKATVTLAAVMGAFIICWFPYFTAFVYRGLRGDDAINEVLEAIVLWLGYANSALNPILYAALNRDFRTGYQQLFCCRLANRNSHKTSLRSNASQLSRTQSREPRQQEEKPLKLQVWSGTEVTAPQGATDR

With `CCCCC1C(=O)N(c2ccccc2)N(c2ccccc2)C1=O` [PHENYLBUTAZONE] the “inhibition (INH)” value (Rattus norvegicus [1]) was 38.9%, the inhibition in vivo at 10 mg/kg (Mus musculus [2]) was 11% and the inhibition in vivo at 10 mg/kg (Mus musculus [3]) was 25%.
Work on `CCc1nnc2n(-c3cccc(C)c3)c(=O)c3ccccc3n12` yielded an Activity (Mus musculus [4]) of 4%.
`CC(/N=N/n1cnc2ccccc2c1=O)=N\Nc1ccccc1` gave an Activity [5] of 15%.
In the case of `CCCCS(=O)(=O)NC(CCCc1ccc2c(c1)c(=O)n(CCC1CCNCC1)c(=O)n2Cc1ccncc1)C(=O)O` (stereo not drawn), the IC50 (Canis familiaris) is reported as 210 nM.
With `COc1cc(N/N=C(C)/N=N/n2cnc3ccccc3c2=O)ccc1O` the Activity [5] was 15%.
Work on `O=c1[nH]c(NCCCOc2cccc(CN3CCCCC3)c2)nc2ccccc12` yielded a pKb [6] of 7.39.
In the case of `O=c1c2ccccc2nc(S)n1NCn1cnc2ccccc21`, the Activity [7] is reported as 25% and the Activity [8] is reported as 27%.
Work on `COC(=O)CCC(NC(=O)c1ccc(NCc2ccc3nc(N)[nH]c(=O)c3c2Cl)s1)C(=O)OC` (stereo not drawn) yielded an IC50 (WIL2) of 1800 nM and an IC50 (CCRF-CEM) of 2100 nM.
Molecule `CC(/N=N/n1cnc2ccccc2c1=O)=N\Nc1ccccc1Cl` has an Activity [5] of 15%.
Molecule `CCCCS(=O)(=O)NC(CNC(=O)c1ccc2[nH]c(=O)n(CCC3CCNCC3)c(=O)c2c1)C(=O)O` (stereo not drawn) has an IC50 (Canis familiaris) of 210 nM.
Molecule `CNC(=C[N+](=O)[O-])NCCSCc1ccc(CN(C)C)o1` has an ED50 [6] of 12.3 mg/kg and a pKb [6] of 7.06.
In the case of `CN(C)CCC(c1ccc(Cl)cc1)c1ccccn1` (stereo not drawn) [CHLORPHENIRAMINE], the Activity (Mus musculus [4]) is reported as 25%.
Molecule `CCCc1nnc2n(-c3cccc(C)c3)c(=O)c3ccccc3n12` has an Activity (Mus musculus [4]) of 4%.
In the case of `CCCCS(=O)(=O)NC(CC#Cc1ccc2[nH]c(=O)n(CCC3CCNCC3)c(=O)c2c1)C(=O)O` (stereo not drawn), the IC50 (Canis familiaris) is reported as 210 nM.
With `CCOC(=O)c1c(C)cc2nc(COC(=O)NC(C)C)n(-c3ccccc3Cl)c(=O)c2c1C` the ED30 (Oryctolagus cuniculus) was 0.42 mg/kg.
Work on `CCCCS(=O)(=O)NC(CCCc1ccc2c(c1)c(=O)n(CCC1CCNCC1)c(=O)n2C)C(=O)O` (stereo not drawn) yielded an IC50 (Canis familiaris) of 210 nM.
With `Nc1nc2[nH]cnc2c(=S)[nH]1` [THIOGUANINE] the GI50 (SR) was 1620 nM, the GI50 (UO-31) was 1480 nM and the GI50 (RXF 393) was 759 nM. It also gave a GI50 [9] of 4.9 µM, a GI50 (K562) of 195 nM and a GI50 (A549) of 3.55 µM. The GI50 (MOLT-4) was 9.12 µM.
`COc1cccc2c(=O)n(Cc3ccccc3)c(SCCN3CCOCC3)nc12` gave an IC50 (MDA-MB-231) of 1850 nM and an IC50 (HeLa) of 1850 nM.
`CC(/N=N/n1cnc2ccccc2c1=O)=N\Nc1ccc(C)cc1` showed an Activity [5] of 15%.
For `O=C(O)c1ccc(Cl)c(-n2c(/C=C/c3ccc(F)cc3)nc3ccccc3c2=O)c1`, the inhibition in vivo at 200 mg/kg (Rattus norvegicus [10]) was 62.2%.
For `Nc1ccc(-c2nc(O)c3cc4c(cc3n2)OCO4)cc1`, the ED50 (Mus musculus [11]) was 21.6 µmol/kg and the ED50 (Mus musculus [12]) was 36.5 µmol/kg.
For `CC1(C)NC(N)=Nc2ccccc21`, the EC50 [13] was 420 µM.
With `Oc1nc(-c2ccc(Br)cc2)nc2cc3c(cc12)OCO3` the ED50 (Mus musculus [11]) was 27.8 µmol/kg and the ED50 (Mus musculus [12]) was 32.7 µmol/kg.
`CC(/N=N/n1cnc2ccccc2c1=O)=N\Nc1ccc(O)cc1` showed an Activity [5] of 15%.
`CCCCS(=O)(=O)NC(CCCc1ccc2[nH]c(=O)n(CCC3CCNCC3)c(=O)c2c1)C(=O)O` (stereo not drawn) showed an IC50 (Canis familiaris) of 210 nM.
`NC1=Nc2ccccc2C2(CC2)N1` gave an EC50 [13] of 100 µM.
With `O=c1c2c(Br)cc(Br)cc2nc(-c2ccccc2)n1-c1nc2ccccc2s1` the Activity (Rattus norvegicus [14]) was 21.3%.
Molecule `Cc1ccc2nc(SCCCN3C(=O)c4ccccc4C3=O)n(Cc3ccccc3)c(=O)c2c1` has an IC50 (MDA-MB-231) of 1850 nM and an IC50 (HeLa) of 1850 nM.
`COC(=O)CCC(NC(=O)c1ccc(N(C)Cc2ccc3nc(C)[nH]c(=O)c3c2)s1)C(=O)OC` (stereo not drawn) gave an IC50 (WIL2) of 1800 nM and an IC50 (CCRF-CEM) of 2100 nM.
With `Cc1cccc(-n2c(=O)c3ccccc3n3c(C)nnc23)c1` the Activity (Mus musculus [4]) was 4%.
Work on `COc1cccc2c(=O)n(Cc3ccccc3)c(SCCCN3C(=O)c4ccccc4C3=O)nc12` yielded an IC50 (MDA-MB-231) of 1850 nM and an IC50 (HeLa) of 1850 nM.
With `Cc1cccc(-n2c(=O)c3ccccc3n3cnnc23)c1` the Activity (Mus musculus [4]) was 4%.
`CCOC(=O)c1c(C)cc2nc(COC(=O)NC)n(-c3ccccc3Cl)c(=O)c2c1C` gave an ED30 (Oryctolagus cuniculus) of 2.8 mg/kg.
Work on `Cc1ccccc1-n1c(C)nc2ccccc2c1=O` [METHAQUALONE] yielded a Time (Mus musculus [15]) of 5.5 min, a Time (Mus musculus [16]) of 119.7 min and an Activity (Mus musculus [17]) of 20%.
